# Laboratory results: ChEMBL document CHEMBL5724696, “Autophagy assay results for EUbOPEN Chemogenomics Library” (2024)
# Several values for one entry are separate records, joined by “and”; a condition that tells them apart may be missing. Equal values may be shown once.
# Experiments:
# Format in all cases: functional, Homo sapiens
# TERT-RPE1 = assay: (§1) Here: values are normalized to the negative (DMSO; defined as 0% autophagy induction) and positive (250nM Torin1; mTOR inhibitor; defined as maximal inducer of autophagy = 100%) control compounds and represented as % of autophagy induction. […] The impact of autophagy induction on cells is complex and depends on the affected target. As such, the magnitude of a phenotype may not be equally mirrored in the %-value of autophagy induction and vice versa. The dynamics of the induction may indicate the mode of activation: e.g. activation via phosphorylation or a signaling cascade may occur fast, while activation via transcription factors may take considerably longer. […] Of note, treatment concentrations may be sub-optimal for specific compounds, leading to false negative annotations.; conditions: Culturing Media DMEM/F12 (1:1), 1 % Penicillin/Streptomycin, 10% Fetal bovin serum Add-On: No, Screening Media Control DMEM/F12 (1:1), Screening Media Samples DMEM/F12 (1:1)
# U2OS [1] = assay: as §1; conditions: Culturing Media DMEM, 1 % Penicillin/Streptomycin, 10% Fetal bovin serum Add-On: No, Screening Media Control DMEM, Screening Media Samples DMEM
# U2OS [2] = assay: as §1; conditions: Culturing Media DMEM, 1 % Penicillin/Streptomycin, 10% Fetal bovin serum Add-On: No, Screening Media Control DMEM, Screening Media Samples DMEM; remark: listed apart in the source
# [3] = Compound Concentration 0.5 uM, Timepoint 12 hours
# [4] = Compound Concentration 0.5 uM, Timepoint 24 hours
# [5] = Compound Concentration 0.5 uM, Timepoint 36 hours
# [6] = Compound Concentration 0.5 uM, Timepoint 60 hours
# [7] = Compound Concentration 2 uM, Timepoint 12 hours
# [8] = Compound Concentration 2 uM, Timepoint 24 hours
# [9] = Compound Concentration 2 uM, Timepoint 36 hours
# [10] = Compound Concentration 2 uM, Timepoint 60 hours
# [11] = Compound Concentration 10 uM, Timepoint 12 hours
# [12] = Compound Concentration 10 uM, Timepoint 24 hours
# [13] = Compound Concentration 10 uM, Timepoint 36 hours
# [14] = Compound Concentration 10 uM, Timepoint 60 hours
SMILES,autophagy induction (U2OS [1]; [3]) [%],autophagy induction (U2OS [1]; [4]) [%],autophagy induction (U2OS [1]; [5]) [%],autophagy induction (U2OS [1]; [6]) [%],autophagy induction (U2OS [1]; [7]) [%],autophagy induction (U2OS [1]; [8]) [%],autophagy induction (U2OS [1]; [9]) [%],autophagy induction (U2OS [1]; [10]) [%],autophagy induction (U2OS [1]; [11]) [%],autophagy induction (U2OS [1]; [12]) [%],autophagy induction (U2OS [1]; [13]) [%],autophagy induction (U2OS [1]; [14]) [%],autophagy induction (U2OS [2]; [3]) [%],autophagy induction (U2OS [2]; [4]) [%],autophagy induction (U2OS [2]; [5]) [%],autophagy induction (U2OS [2]; [6]) [%],autophagy induction (U2OS [2]; [7]) [%],autophagy induction (U2OS [2]; [8]) [%],autophagy induction (U2OS [2]; [9]) [%],autophagy induction (U2OS [2]; [10]) [%],other results
O=C(Cc1ccccc1)Nc1nc2ccc(Cl)cc2c2nc(-c3ccco3)nn12,-1.429,-4.076,-2.306,0.1335,-7.203,-1.219,-0.343,-0.2104,-51.1859,-16.9004,-8.178,-3.011,4.486,1.051,3.966,7.125,-5.124,-1.574,-4.263,4.935,autophagy induction (TERT-RPE1; [3]): -7.39%; autophagy induction (TERT-RPE1; [4]): -10.3716%; autophagy induction (TERT-RPE1; [5]): -15.7815%; autophagy induction (TERT-RPE1; [6]): -15.2628%; autophagy induction (TERT-RPE1; [7]): -6.9816%; autophagy induction (TERT-RPE1; [8]): -7.632%; autophagy induction (TERT-RPE1; [9]): -7.871%; autophagy induction (TERT-RPE1; [10]): -12.6626%; autophagy induction (TERT-RPE1; [11]): -9.4005%; autophagy induction (TERT-RPE1; [12]): 10.615%; autophagy induction (TERT-RPE1; [13]): 24.2695%; autophagy induction (TERT-RPE1; [14]): 38.8225%; autophagy induction (U2OS [2]; [11]): -2.171%; autophagy induction (U2OS [2]; [12]): -3.2492%; autophagy induction (U2OS [2]; [13]): 0.6441%; autophagy induction (U2OS [2]; [14]): 10.7185%
CCC[C@H](Oc1cc(C)c(-n2cc(C(F)(F)F)cn2)c(C)c1)c1ccc(C(=O)NCCC(=O)O)cc1 [PF-06291874],-5.893,-2.993,-60.6887,-2.982,-4.845,-1.051,-59.3505,-1.615,-7.606,-1.597,-60.4241,-2.455,-11.4233,-19.405,-11.4713,-20.1699,-1.65,-7.926,-7.132,-11.198,"autophagy induction (TERT-RPE1; Compound Concentration 0.5 uM, Timepoint 36 hours, 36 h, 0.5 µM): -0.178% and 20.1142%; autophagy induction (U2OS [2]; [11]): 3.31%; autophagy induction (U2OS [2]; [12]): 3.258%; autophagy induction (U2OS [2]; [13]): -0.5015%; autophagy induction (U2OS [2]; [14]): -15.9451%"
